Laboratory results: the supplement of paper PMC10307832

Legend:
Assay in all cases: relative viability (nuclei count vs DMSO), 5 days (fraction); higher = more cells survive
[1] = compound: C=CCc1cccc(/C=N/NC(=O)CN2CCN(Cc3ccccc3)CC2)c1O [PAC-1] + CCNC(=O)c1noc(-c2cc(C(C)C)c(O)cc2O)c1-c1ccc(CN2CCOCC2)cc1 [Luminespib] (partner 0.01 µM)
Summary of the method: (§1)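 Relative viability is defined as nuclei in treated wells over nuclei in vehicle wells. Duplicate plates were run and medians reported. Lung cancer cell lines in 1536-well plates were dosed by pin tool one day after seeding, with one drug or with a fixed anchor-drug dose plus five library-drug doses (not always all listed) in √10 steps, and nuclei were counted after 5 days.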

[2] = compound: C=CC(=O)Nc1cc(-n2c(=O)ccc3cnc4ccc(-c5ccc(NS(C)(=O)=O)cc5)cc4c32)ccc1C [BMX-IN-1] + CC(C)C[C@H](NC(=O)[C@H](Cc1ccccc1)NC(=O)c1cnccn1)B(O)O [Bortezomib] (partner 0.002 µM)
Summary of the method: as §1

[3] = compound: C=CC(=O)Nc1cc(-n2c(=O)ccc3cnc4ccc(-c5ccc(NS(C)(=O)=O)cc5)cc4c32)ccc1C [BMX-IN-1] + CCNC(=O)c1noc(-c2cc(C(C)C)c(O)cc2O)c1-c1ccc(CN2CCOCC2)cc1 [Luminespib] (partner 0.01 µM)
Summary of the method: as §1

[4] = compound: C=CC(=O)N1CCC[C@@H](n2nc(-c3ccc(Oc4ccccc4)cc3)c3c(N)ncnc32)C1 [Ibrutinib] + Nc1nc2[nH]cc(CCc3ccc(C(=O)N[C@@H](CCC(=O)O)C(=O)O)cc3)c2c(=O)[nH]1 [Pemetrexed] (partner 0.2 µM)
Summary of the method: as §1

Cell Line | relative viability ([1]; first compound 0.02 µM) | relative viability ([1]; first compound 0.06325 µM) | relative viability ([1]; first compound 0.2 µM) | relative viability ([1]; first compound 2 µM) | relative viability ([2]; first compound 0.02 µM) | relative viability ([2]; first compound 0.2 µM) | relative viability ([2]; first compound 0.6325 µM) | relative viability ([2]; first compound 2 µM) | relative viability ([3]; first compound 0.02 µM) | relative viability ([3]; first compound 0.2 µM) | relative viability ([3]; first compound 0.6325 µM) | relative viability ([3]; first compound 2 µM) | relative viability ([4]; first compound 0.005 µM) | relative viability ([4]; first compound 0.01581 µM) | relative viability ([4]; first compound 0.05 µM) | relative viability ([4]; first compound 0.1581 µM) | relative viability ([4]; first compound 0.5 µM)
COR-L 105 | 0.769 | 0.788 | 0.627 | 0.725 | 0.965 | 0.697 | 1.03 | 0.659 | 0.753 | 0.693 | 0.928 | 0.706 | 0.778 | 1.16 | 0.855 | 1.06 | 0.692
LXF-289 | 0.683 | 0.731 | 0.758 | 0.756 | 1.09 | 1.16 | 1.11 | 1.05 | 0.816 | 0.809 | 0.825 | 0.671 | 0.936 | 0.927 | 0.915 | 0.81 | 1.01
HARA | 0.554 | 0.674 | 0.793 | 0.937 | 1.14 | 1.62 | 1.16 | 1.22 | 1.01 | 0.207 | 0.683 | 0.682 | 0.243 | 0.22 | 0.249 | 0.207 | 0.242
NCI-H1975 | 0.242 | 0.188 | 0.253 | 0.167 | 0.356 | 0.338 | 0.45 | 0.433 | 0.253 | 0.21 | 0.481 | 0.159 | 0.292 | 0.28 | 0.315 | 0.277 | 0.309
UMC-11 | 1.05 | 0.986 | 1.04 | 0.928 | 0.929 | 0.625 | 1.19 | 0.791 | 1.17 | 1.24 | 1.19 | 1.03 | 0.87 | 0.732 | 0.832 | 0.824 | 0.821
NCI-H2023 | 0.741 | 0.703 | 0.667 | 0.444 | 1.21 | 1.19 | 1.27 | 1.08 | 1.06 | 1.03 | 0.774 | 0.739 | 0.208 | 0.219 | 0.293 | 0.248 | 0.396
NCI-H23 | 0.231 | 0.223 | 0.237 | 0.219 | 1.23 | 1.46 | 1.18 | 1.06 | 0.209 | 0.203 | 0.22 | 0.208 | 0.698 | 0.614 | 0.845 | 0.527 | 0.812
CAL-12T | 0.268 | 0.517 | 0.381 | 0.247 | 0.92 | 0.785 | 1.17 | 0.949 | 0.578 | 0.483 | 0.392 | 0.712 | 1.26 | 1.19 | 1.12 | 1.26 | 1.27
LCLC-97TM1 | 0.74 | 0.916 | 0.621 | 0.868 | 0.332 | 0.562 | 0.629 | 0.505 | 0.969 | 0.856 | 0.817 | 0.823 | 0.234 | 0.208 | 0.22 | 0.232 | 0.249
